Like-named read-outs stand apart in the source and are kept apart here.

The subject of data set [1] is human lung cancer LU-01-0393 subcutaneous xenograft tumor. Put plainly: In vivo drug efficacy study (II): human lung cancer LU-01-0393 subcutaneous xenograft tumor model. More on the design: species or system BALB/c nude mice. The conditions noted are these: 120.0 mg/kg PO QD × 3W. From the text:
Cell line-derived xenograft (CDX) BALB/c nude mice that were female, 6- to 8-week old, weighed 17 to 20 g, and subcutaneously implanted with human tumor cell line derived from LU-01-0393 lung cancer patient were used. A total of 72 mice were needed and were purchased from Shanghai Xipuer-Bikai Experimental Animal Co., Ltd. Human lung cancer LU-01-0393 tumor (i.e., non-small cell lung cancer) was originally derived from a clinical sample of a surgical resection. It was defined as passage PO after being inoculated to nude mice, and the tumor of passage PO was re-inoculated to nude mice and was then defined as passage P1, and so forth. Passage was performed in nude mice. LU-01-0393-FP5 was obtained from the transplantation after the recovery of P4. This study would use the tumor tissue of passage FP6.
BALB/c nude mice that were female, 6- to 8-week old, and weighed approximately 17 to 20 g were used. The mice were maintained in separate ventilated cages in a special pathogen-free environment. All the cages, bedding and water were disinfected prior to use. All the animals were free to access a standard certified commercial laboratory diet. A total of 72 mice purchased from Shanghai Xipuer-Bikai Experimental Animal Co., Ltd. were used for the study. The LU-01-0393 FP6 tumor tissue was cut to 20 to 30 mm^3 and inoculated to the right back of each mouse to wait for the tumor growth. When the average tumor volume reached about 171 mm^3, the mice were randomized into groups and administered. The test compounds were orally administered daily, and the administration dosages were as shown in the above table. The tumor diameters were measured twice a week using a two-dimensional caliper. The tumor volumes were calculated by the following formula: V=0.5 a×b^2, wherein a and b were the long diameter and the short diameter of a tumor, respectively. The anti-tumor efficacy was determined by dividing the average increase of the tumor volumes of the animals treated with a compound by the average increase of the tumor volumes of the animals without being treated with the compound.
Background: A xenograft is tissue or cells of one species grown in another, often human tumour cells in immunodeficient mice.

In data set [2] the test system is human breast cancer MCF-7 subcutaneous xenograft tumor. It counts as in vivo. From the text:
Cell line-derived xenograft (CDX) BALB/c nude mice that were female, 6- to 8-week old, weighed 20 g, and subcutaneously implanted with human tumor cell line derived from MCF-7 breast cancer patients were used. A total of 150 mice were needed, which were purchased from Beijing Vital River Laboratory Animal Technology Co., Ltd.
BALB/c nude mice that were female, 6- to 8-week old, and weighed approximately 20 g were used. The mice were maintained in separate ventilated cages (10 mice per cage) in a special pathogen-free environment. All the cages, bedding and water were disinfected prior to use. All the animals were free to access a standard certified commercial laboratory diet. A total of 150 mice were purchased from Beijing Vital River Laboratory Animal Technology Co., Ltd. for research. Each mouse was implanted subcutaneously with an estrogen tablets (0.18 mg/tablet, 60-day sustained release) in the left back. After 3 days, each mouse was implanted with tumor cells (10×10^6 in 0.2 mL of phosphate buffer) subcutaneously in the right back for tumor growth. Administration was started when the average tumor volume reached about 150 to 200 mm^3. The test compounds were orally administered daily, and the administration dosages were as shown in the above table. The tumor volumes were measured twice a week using a two-dimensional caliper. The volumes were expressed in cubic millimeters and calculated by the following formula: V=0.5 a×b^2, wherein a and b were the long diameter and short diameter of a tumor, respectively. The anti-tumor efficacy was determined by dividing the average increase of the tumor volumes of the animals treated with a compound by the average increase of the tumor volumes of the animals without being treated with the compound.

In data set [3] the test system is MCF-7 breast cancer cells. Put plainly: Inhibition assay of the A crystal form of WX_1 on MCF-7 breast cancer cell proliferation (CellTiter-Glo). It counts as cell-based. The conditions noted are these: Homo sapiens, MCF7, 144 h; MCF-7 cells, 6 days. How it is done: RPMI 1640 medium, fetal bovine serum and penicillin/streptomycin as antibiotics were purchased from Promega (Madison, Wis.). The MCF-7 cell line was purchased from the European Collection of Authenticated Cell Cultures (ECACC). Envision MultiLabel Plate Reader (PerkinElmer).
(§1) MCF-7 cells were seeded in a black 384-well plate with 45 μL of cell suspension (containing 200 MCF-7 cells) per well. The cell plate was placed in a carbon dioxide incubator for overnight culture.
(§2) The test compounds were diluted 3 times to the 10th concentration with Bravo, i.e., diluted from 10 μM to 0.508 nM, and a duplicate-well experiment was set. The medium was added to the middle plate in an amount of 49 μL per well. The gradient-diluted compounds were transferred in an amount of 1 μL per well to the middle plate according to the corresponding positions, and the mixture was mixed evenly and transferred to the cell plate in an amount of 5 μL per well. The cell plate was incubated in a carbon dioxide incubator for 6 days.
Promega CellTiter-Glo reagent was added to the cell plate in an amount of […] per well, and incubated for 10 minutes at room temperature to stabilize the luminescence signal. Reading was performed using a PerkinElmer Envision Multilabel Plate Reader.
(In general: In ATP-based viability assays light output follows the ATP content of the culture.)

The next data set relates to MCF-7 cells. Kind of data set: Inhibition assay of the compound of formula (I) on the proliferation of MCF-7 cells (CellTiter-Glo). It counts as cell-based. The conditions noted are these: Homo sapiens, MCF7, 144 h, 6 days. How it is done: (§3) RPMI 1640 medium, fetal bovine serum and penicillin/streptomycin as antibiotics were purchased from Promega (Madison, Wis.). The MCF-7 cell line and the MDA-MB-436 cell line were purchased from the European Collection of Authenticated Cell Cultures (ECACC). Envision Multilabel Plate Reader (PerkinElmer).
as §1, §2
(§4) Promega CellTiter-Glo reagent was added to the cell plate in an amount of 25 μL per well, and incubated for 10 minutes at room temperature to stabilize the luminescence signal. Reading was performed using a PerkinElmer Envision Multilabel Plate Reader.

Data set [4] in a line: Solubility tests in different vehicles (HPLC). It counts as physicochemical. Conditions: 26 °C, thermodynamic from solid, room temperature 25 to 27° C. The method, then: Samples (about 2 mg) (if the sample was a salt, the required amount of the salt was calculated according to the salt factor in accordance with the criterion that the compound of formula (I) was 2 mg) were weighed respectively and added to a 1.5 mL glass vial. Different vehicles (1 mL) were then added respectively. The above-mentioned suspension was placed on a magnetic stirrer for stirring (room temperature 25 to 27° C.). After stirring for 24 hours, samples were taken. The samples were first centrifuged, and the supernatants were taken. After appropriate dilution according to the situation of the dissolution, the concentrations were determined by HPLC. The results were as follows:
Notes: • FaSSIF: to simulate the intestinal fluid in the small intestine of human in a hunger state before meal; • FeSSIF: to simulate the intestinal fluid in the small intestine of human in a full state after meal; • SGF: to simulate the gastric juice in the empty stomach of human in a hunger state

For the next data set, the system named is MDA-MB-436 cells. Put plainly: Inhibition assay of the compound of formula (I) on the proliferation of MDA-MB-436 cells (CellTiter-Glo). The format is cell-based. Conditions: Homo sapiens, 144 h, 6 days. How it is done: as §3
MDA-MB-436 cells were seeded in a black 384-well plate with 45 μL of cell suspension (containing 585 MDA-MB-436 cells) per well. The cell plate was placed in a carbon dioxide incubator for overnight culture.
as §2, §4

With `CCN1CCN(Cc2ccc(Nc3ncc(F)c(-c4cc(F)c5nc(C)n(C(C)C)c5c4)n3)nc2)CC1` [LY2835219, Abemaciclib], in data set [1], the “Tumor volume Day 0” value was 172 ± 23 mm^3, the “Tumor volume Day 7” value stood at 228 ± 26 mm^3, the “Tumor volume Day 14” value was determined as 255 ± 30 mm^3 and the “Tumor volume Day 21” value is on record as 272 ± 36 mm^3. Further, in data set [2] (25.0 mg/kg PO QD × 3W), the “Tumor volume Day 0” value came to 153 mm^3 and the “Tumor volume Day 7” value is 155 mm^3. In addition, in data set [3], half-maximal inhibition (IC50) was put at 185 nM.
Take `CC(=O)c1c(C)c2cnc(Nc3ccc(N4CCNCC4)cn3)nc2n(C2CCCC2)c1=O` [Palbociclib]: in data set [1], the “Tumor volume Day 0” value is 170 ± 24 mm^3, the “Tumor volume Day 7” value is 261 ± 38 mm^3, the “Tumor volume Day 14” value is 266 ± 41 mm^3 and the “Tumor volume Day 21” value was 251 ± 34 mm^3. In data set [2] (25.0 mg/kg PO QD × 3W), the “Tumor volume Day 0” value is 153 mm^3, the “Tumor volume Day 7” value came out at 203 mm^3, the “Tumor volume Day 14” value is 252 mm^3 and the “Tumor volume Day 20” value was determined as 222 mm^3. In data set [2] (50.0 mg/kg PO QD × 3W), the “Tumor volume Day 0” value is 153 mm^3, the “Tumor volume Day 7” value is recorded as 180 mm^3, the “Tumor volume Day 14” value came out at 197 mm^3 and the “Tumor volume Day 20” value is recorded as 137 mm^3. Further, the tolerability entry in data set [2] (mouse, in vivo) was “intolerable”. Also, in data set [3], the concentration for half-maximal inhibition (IC50) (commonly the midpoint of a concentration-inhibition curve) came out at 88.2 nM.
Turning to `CC(C)c1c2cc(-c3nc(Nc4ccc(N5CCNCC5)cn4)ncc3F)ccc2nn1C` [compound of formula (I)], the half-inhibitory concentration (IC50) in the data set with MCF-7 cells was determined as 32.1 nM; with MDA-MB-436 cells, 328 nM. For the same compound, the solubility (as a rule, the dissolved amount per volume that the medium holds) at 24 h is over 2000 µg/mL in data set [4] (simulated gastric fluid, SGF, read-out: Solubility SGF); 13 µg/mL in data set [4] (FaSSIF, read-out: Solubility FaSSIF); 1600 µg/mL in data set [4] (FeSSIF, read-out: Solubility FeSSIF); 10 µg/mL in data set [4] (water, water, H2O, read-out: Solubility H2O).
`CCN1CCN(Cc2ccc(Nc3ncc(F)c(-c4ccc5nn(C)c(C(C)C)c5c4)n3)nc2)CC1` [compound of formula (a), reference compound]: the results for the IC50 with MCF-7 cells and with MDA-MB-436 cells were 240 nM and 2100 nM, respectively.

The values above are taken from US10626107B2, “Crystal form, salt type of substituted 2-hydro-pyrazole derivative and preparation method therefor” (CHIA TAI TIANQING PHARMACEUTICAL GROUP CO., LTD., priority 2016, dated 2020).
